These results are taken from patent US12491173B2, “Metabolism-improving agent comprising rare fatty acid” (Noster Inc., priority 2014, dated 2025).

Experiment [1] addresses T1, fusion protein of PPARα ligand binding region and GAL4 DNA binding region (Homo sapiens, UniProt Q07869).
T1 construct: expressed in transfected cells; host or cells: CV-1 cell
T1 sequence (Q07869 239-466 limits assumed): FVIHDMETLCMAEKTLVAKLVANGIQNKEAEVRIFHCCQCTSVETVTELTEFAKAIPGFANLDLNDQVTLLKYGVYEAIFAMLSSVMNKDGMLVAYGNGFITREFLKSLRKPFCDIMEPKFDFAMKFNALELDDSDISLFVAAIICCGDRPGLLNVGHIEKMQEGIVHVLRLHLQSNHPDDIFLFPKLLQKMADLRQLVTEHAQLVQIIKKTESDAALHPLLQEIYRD
The experiment is described as follows: PPARα ligand activity, GAL4 fusion luciferase reporter assay in CV-1 cell. The experiment is classed as cell-based. The conditions noted are these: sample 10 μM and 30 μM, vs ethanol negative control, FIG. 2. How it is done: (§1) To evaluate the function of hydroxylated fatty acid and oxo fatty acid and the like, PPARα, γ-activating action was measured first. The measurement was performed in reference to Nobuyuki Takahashi et al., FEBS Letters 514 (2002) p. 315-322, “Dual action of isoprenols from herbal medicines on both PPARgamma and PPARalpha in 3T3-L1 adipocytes and HepG2 hepatocytes.”, the section of Materials and Methods “Reporter plasmids and luciferase assays”. To be specific, PPARα,γ ligand activity was measured by a reporter assay that evaluates binding to a fusion protein of PPAR ligand binding region and GAL4 DNA binding region and target gene activation, based on the expression of luciferase. Specifically, a plasmid comprising a DNA encoding a fusion protein of PPARα,γ ligand binding region and GAL4 DNA binding region and a reporter plasmid wherein luciferase linked to GAL4 bound DNA sequence were introduced into CV-1 cell, a ligand described below was added to the cell, the cell was incubated and the luciferase activity was detected.
(§2) The concentration (10 μM and 30 μM) of the sample was adjusted with ethanol. Ethanol was used as a negative control, and PPARα,γ ligands GW7647 (10 nM) and troglitazone (5 μM) were used as a positive control.
For orientation: A reporter such as luciferase makes a cellular process visible.

In experiment [2] the target is T2, fusion protein of PPARγ ligand binding region and GAL4 DNA binding region (Homo sapiens, UniProt P37231).
T2 construct: expressed in transfected cells; host or cells: CV-1 cell
T2 sequence (P37231 238-503 limits assumed): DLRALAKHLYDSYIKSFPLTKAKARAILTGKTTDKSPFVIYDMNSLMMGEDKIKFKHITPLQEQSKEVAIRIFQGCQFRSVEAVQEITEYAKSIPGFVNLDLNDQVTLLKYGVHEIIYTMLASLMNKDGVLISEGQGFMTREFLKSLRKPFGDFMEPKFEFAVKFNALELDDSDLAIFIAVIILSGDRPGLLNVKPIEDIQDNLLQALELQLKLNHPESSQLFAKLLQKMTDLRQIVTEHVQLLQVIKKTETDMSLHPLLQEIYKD
The experiment can be described thus: PPARγ ligand activity, GAL4 fusion luciferase reporter assay in CV-1 cell. Format: cell-based. The note with it: sample 10 μM and 30 μM, vs ethanol negative control, FIG. 3. How it is done:
as §1, §2

With `CCCCCC(=O)CC/C=C\C/C=C\CCCCC(=O)O` [13-OXO GLA, 13-oxo-cis-6,cis-9-octadecadienoic acid], the “PPARα agonist activity (relative luciferase activity)” value in experiment [1] was “strong PPARα agonist activity”.

Consider `CC/C=C\CC(=O)CC/C=C\CCCCCCCC(=O)O` [13-OXO ALA, 13-oxo-cis-9,cis-15-octadecadienoic acid], for which, in experiment [2], the “PPARγ agonist activity (relative luciferase activity)” value is listed as “strong PPARγ agonist activity”.
